Active and inactive are the calls of the source. No cut-off for these calls is given here.
These compounds were tested on Hippocampal neuron (assay: Neuroprotective activity against Amyloid beta-induced mouse hippocampal neuronal death at 1 uM pretreated for 1 hr before Amyloid beta treatment measured after 48 hrs using propidium iodide staining by fluorescence […] microscopy). Details: Hippocampus.
Format: functional, tissue-based
For Fc1c(F)c(F)c(Cn2cc(Cn3cnc4c(NCc5ccccc5)nc(Cl)nc43)nn2)c(F)c1F, the Activity was “inactive”.
With Clc1nc(NCc2ccccc2)c2ncn(Cc3cn(Cc4ccccc4)nn3)c2n1 the Activity was “Active”.
CC[C@H](CO)Nc1nc(NCc2ccccc2)c2ncn(C(C)C)c2n1 was tested, and the Activity was “Active”.
In the case of CN1CC[C@H](c2c(O)cc(O)c3c(=O)cc(-c4ccccc4Cl)oc23)[C@H](O)C1, the Activity was “Active”.
In the case of Fc1ccccc1Cn1cc(Cn2cnc3c(NCc4ccccc4)nc(Cl)nc32)nn1, the Activity was “Active”.
For Fc1cccc(F)c1Cn1cc(Cn2cnc3c(NCc4ccccc4)nc(Cl)nc32)nn1, the Activity was “Active”.
